Experiments:
trachealis muscle tissue = test: Inhibition of calcium dependent smooth muscle contraction, trachea (P#176 Trach); parameters: species or system dog; details: Canis lupus familiaris, 50 mM KCl contraction, read-out: P#176 Trach % INHB/μM
Procedure: (§1) The test for inhibition of calcium dependent smooth muscle contraction is determined according to the following procedure:
(§2) The trachea and the aorta from dogs sacrificed by excess KCl injection are stored overnight at 4° C. in oxygenated Krebs-Henseleit buffer. Tracheal rings, one cartilage segment wide (5-10 mm), are cut starting from the bronchial end. Rings of aorta tissue of the same width are also prepared. After cutting the cartilage, the trachealis muscle tissue and the aorta tissue are suspended in oxygenated Krebs-Henseleit buffer at 37° C. in a 25 ml tissue bath. After a 60-minute equilibration period, the tissues are challenged with 10 μM carbachol. After 5 minutes, the tissues are rinsed and allowed to rest 50 minutes. The tissues are then challenged with 50 mM KCl and, after 30 minutes, the contractions are quantitated. The tissues are then rinsed and reequilibrated for 50 minutes. Test compounds are then added for 10 minutes, and the tissue is rechallenged with 50 mM KCl. After 30 minutes, the contraction is recorded and used to determine the % inhibition of control.
(§3) The percent inhibition of smooth muscle contraction is calculated from response data before and after drug treatment. [formula]

aorta tissue = test: Inhibition of calcium dependent smooth muscle contraction, aorta (P#176 Aorta); parameters: species or system dog; details: Canis lupus familiaris, 50 mM KCl contraction, read-out: P#176 Aorta % INHB/μM
Procedure: as §1, §2, §3

[1] = target: T1, Calcium Channel (3H-nitrendipine binding, heart membranes) (Oryctolagus cuniculus, UniProt P15381); test: Inhibition of 3H-nitrendipine binding (P#166 Nit. Binding); parameters: species or system rabbit; details: for IC50: rabbit heart membranes, 3H-nitrendipine 0.05-0.50 nM; for inhibition at 1 µM: @ 1.0 μM test compound
T1 construct: the heart is immediately removed, cleaned and chopped into small pieces; The tissue is homogenized; from tissue; host or cells: heart membranes of female New Zealand white rabbits (42,000×g pellet)
T1 sequence (P15381 whole entry, other chains not shown): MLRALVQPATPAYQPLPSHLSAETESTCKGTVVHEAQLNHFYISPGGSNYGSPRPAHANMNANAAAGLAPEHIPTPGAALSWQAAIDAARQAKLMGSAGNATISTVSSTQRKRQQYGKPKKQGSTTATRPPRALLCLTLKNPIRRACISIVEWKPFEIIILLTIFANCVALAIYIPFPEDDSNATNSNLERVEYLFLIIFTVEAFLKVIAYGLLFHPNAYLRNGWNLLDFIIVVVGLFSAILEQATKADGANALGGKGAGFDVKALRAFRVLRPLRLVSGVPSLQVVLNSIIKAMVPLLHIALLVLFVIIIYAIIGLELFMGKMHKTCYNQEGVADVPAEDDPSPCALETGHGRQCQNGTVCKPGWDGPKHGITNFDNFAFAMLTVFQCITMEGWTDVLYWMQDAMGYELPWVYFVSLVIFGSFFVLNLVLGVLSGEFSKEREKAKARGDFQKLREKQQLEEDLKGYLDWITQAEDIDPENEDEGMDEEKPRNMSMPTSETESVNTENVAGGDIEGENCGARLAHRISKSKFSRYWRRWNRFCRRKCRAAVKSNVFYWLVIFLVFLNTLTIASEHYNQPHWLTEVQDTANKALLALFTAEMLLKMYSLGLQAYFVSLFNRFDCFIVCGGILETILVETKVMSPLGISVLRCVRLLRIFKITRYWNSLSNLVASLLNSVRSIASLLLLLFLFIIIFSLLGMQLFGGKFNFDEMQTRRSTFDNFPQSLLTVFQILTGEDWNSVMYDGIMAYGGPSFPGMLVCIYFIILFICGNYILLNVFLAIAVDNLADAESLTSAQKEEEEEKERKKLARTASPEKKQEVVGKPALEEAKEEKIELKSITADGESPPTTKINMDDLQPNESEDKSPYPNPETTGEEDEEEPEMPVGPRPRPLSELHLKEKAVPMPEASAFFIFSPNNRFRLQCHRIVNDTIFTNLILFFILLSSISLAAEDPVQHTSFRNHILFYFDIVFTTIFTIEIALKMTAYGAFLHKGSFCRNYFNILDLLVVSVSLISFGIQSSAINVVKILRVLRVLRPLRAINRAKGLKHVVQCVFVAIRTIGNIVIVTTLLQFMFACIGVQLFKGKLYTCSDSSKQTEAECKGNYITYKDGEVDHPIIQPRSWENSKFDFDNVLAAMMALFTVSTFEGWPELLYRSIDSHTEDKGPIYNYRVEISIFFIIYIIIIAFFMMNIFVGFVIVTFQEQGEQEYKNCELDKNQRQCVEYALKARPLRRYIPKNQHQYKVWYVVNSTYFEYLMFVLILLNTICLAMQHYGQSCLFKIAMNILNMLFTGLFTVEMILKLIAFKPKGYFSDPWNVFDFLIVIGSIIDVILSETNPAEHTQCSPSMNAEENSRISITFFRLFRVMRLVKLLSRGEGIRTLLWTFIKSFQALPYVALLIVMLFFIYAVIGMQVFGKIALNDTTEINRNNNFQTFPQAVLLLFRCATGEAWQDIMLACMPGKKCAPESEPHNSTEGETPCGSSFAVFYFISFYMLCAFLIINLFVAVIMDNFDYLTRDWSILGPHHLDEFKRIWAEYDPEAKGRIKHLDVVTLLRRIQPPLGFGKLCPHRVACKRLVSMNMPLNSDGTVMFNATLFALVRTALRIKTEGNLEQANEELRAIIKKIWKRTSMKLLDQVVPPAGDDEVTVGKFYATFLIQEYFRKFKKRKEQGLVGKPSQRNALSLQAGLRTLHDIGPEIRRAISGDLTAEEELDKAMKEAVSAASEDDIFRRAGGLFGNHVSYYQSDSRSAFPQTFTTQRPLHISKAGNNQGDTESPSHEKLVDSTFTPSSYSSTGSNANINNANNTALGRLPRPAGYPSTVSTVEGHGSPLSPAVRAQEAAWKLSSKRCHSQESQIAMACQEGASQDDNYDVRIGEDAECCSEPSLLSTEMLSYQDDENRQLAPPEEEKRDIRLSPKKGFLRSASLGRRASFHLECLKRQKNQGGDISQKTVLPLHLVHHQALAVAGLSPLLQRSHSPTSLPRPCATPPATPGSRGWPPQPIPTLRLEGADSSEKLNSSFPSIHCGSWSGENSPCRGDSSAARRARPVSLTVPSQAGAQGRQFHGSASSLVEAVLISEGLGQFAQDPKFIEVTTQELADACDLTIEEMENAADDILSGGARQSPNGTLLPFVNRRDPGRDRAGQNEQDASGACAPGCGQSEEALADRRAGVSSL
T1 sequence (P13806 27-960 partner limits assumed, other chains not shown): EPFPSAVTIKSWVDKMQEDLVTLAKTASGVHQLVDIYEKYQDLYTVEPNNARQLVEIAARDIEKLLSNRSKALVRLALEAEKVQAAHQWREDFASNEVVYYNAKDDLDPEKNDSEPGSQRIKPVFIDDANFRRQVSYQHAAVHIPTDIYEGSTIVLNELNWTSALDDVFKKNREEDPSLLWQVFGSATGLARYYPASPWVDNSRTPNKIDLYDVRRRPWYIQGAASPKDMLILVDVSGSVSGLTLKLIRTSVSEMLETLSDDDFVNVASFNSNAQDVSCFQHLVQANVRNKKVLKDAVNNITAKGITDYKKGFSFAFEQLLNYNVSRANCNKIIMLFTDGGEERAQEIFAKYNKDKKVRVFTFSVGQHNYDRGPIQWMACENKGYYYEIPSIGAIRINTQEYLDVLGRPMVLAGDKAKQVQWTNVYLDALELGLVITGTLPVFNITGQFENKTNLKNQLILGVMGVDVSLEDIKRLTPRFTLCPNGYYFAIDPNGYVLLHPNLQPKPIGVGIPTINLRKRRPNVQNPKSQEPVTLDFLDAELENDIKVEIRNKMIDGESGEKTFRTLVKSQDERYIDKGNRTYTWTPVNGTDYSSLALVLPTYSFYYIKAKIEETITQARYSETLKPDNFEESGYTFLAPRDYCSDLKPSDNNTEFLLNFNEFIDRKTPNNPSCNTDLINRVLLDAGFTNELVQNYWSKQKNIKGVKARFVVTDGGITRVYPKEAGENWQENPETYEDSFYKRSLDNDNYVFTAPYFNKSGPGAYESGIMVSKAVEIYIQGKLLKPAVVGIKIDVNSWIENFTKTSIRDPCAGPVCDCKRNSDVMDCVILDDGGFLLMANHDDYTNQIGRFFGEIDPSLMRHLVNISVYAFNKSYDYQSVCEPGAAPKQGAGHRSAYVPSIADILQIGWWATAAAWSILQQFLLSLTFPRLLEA
T1 sequence (P13806 961-1106 partner limits assumed, other chains not shown): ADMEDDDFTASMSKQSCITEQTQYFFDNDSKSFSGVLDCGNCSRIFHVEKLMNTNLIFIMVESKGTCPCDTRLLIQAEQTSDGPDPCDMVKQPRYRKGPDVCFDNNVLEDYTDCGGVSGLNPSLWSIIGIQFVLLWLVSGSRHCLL
Procedure: The assay for inhibition of nitrendipine binding is performed using the following procedure:
Female, New Zealand white rabbits (1-2 kg) are sacrificed by cervical dislocation, and the heart is immediately removed, cleaned and chopped into small pieces. The tissue is homogenized in 5×volume of 0.05M Hepes buffer, pH 7.4. The homogenate is centrifuged at 4000×g for 10 minutes, and the supernatant is recentrifuged at 42,000×g for 90 minutes. The resulting membrane pellet is resuspended (0.7 ml/g weight) in 0.05M Hepes, pH 7.4 and stored at […] until used. Each tube of the binding assay contains ^3 H-nitrendipine (0.05-0.50 nM), buffer, membranes (0.10 ml), and test compound in a total volume of 1.0 ml. After 90 minutes at 4° C., the bound nitrendipine is separated from the unbound by filtration on Whatman GF/C filters. After rinsing, the filters are dried and counted in a liquid scintillation counter.
Non-specific binding of ^3 H-nitrendipine (that amount bound in the presence of excess unlabelled nitrendipine) is subtracted from the total bound to obtain specifically bound radiolabeled nitrendipine. The amount of specifically bound nitrendipine in the presence of a test compound is compared to that amount bound in the absence of a compound. A percent displacement (or inhibition) can then be obtained.

Row | IC50 [1] [nM] | inhibition at 1 µM [1] [%] | SMILES | inhibition at 0.1 µM (trachealis muscle tissue) [%] | inhibition at 0.3 µM (trachealis muscle tissue) [%] | inhibition at 2 µM (trachealis muscle tissue) [%] | inhibition at 0.01 µM (aorta tissue) [%] | inhibition at 0.1 µM (aorta tissue) [%] | inhibition at 1 µM (aorta tissue) [%] | inhibition at 0.01 µM (trachealis muscle tissue) [%] | inhibition at 0.03 µM (trachealis muscle tissue) [%] | inhibition at 0.03 µM (aorta tissue; 0.03 μM) [%] | inhibition at 0.3 µM (aorta tissue; 0.3 μM) [%] | inhibition at 1 µM (trachealis muscle tissue; 1.0 μM) [%]
1 | 72 | – | CCOC(=O)C1=C(C)NC2=C(C1c1cccc(Cl)c1Cl)S(=O)(=O)CCN(C(C)C)C2 (centres unmarked) [2,3-dichloro / iPr / ethyl] | 37 | 61 | 86 | 38 | 83 | 95 | – | – | – | – | –
2 | 660 | – | CCOC(=O)C1=C(C)NC2=C(C1c1cccc3nonc13)S(=O)(=O)CCNC2 (centres unmarked) [2,3-(2,1,3 oxadiazolyl) / H / ethyl] | – | 22 | 68 | – | 22 | 83 | – | – | – | – | –
3 | 145 | – | CCCN1CCS(=O)(=O)C2=C(C1)NC(C)=C(C(=O)OCC)C2c1cccc(Cl)c1Cl (centres unmarked) [2,3-dichloro / Pr / ethyl] | 44 | 53 | 68 | 53 | 88 | 100 | – | 30 | – | – | –
4 | 380 | – | CC1=C(C(=O)OCCN(C)Cc2ccccc2)C(c2cccc(Cl)c2Cl)C2=C(CNCCS2(=O)=O)N1 (centres unmarked) [2,3-dichloro / H / NBzNMe-ethyl, 2-(N-benzyl-N-methylamino)ethyl 9-(2,3-dichlorophenyl)-1,1-dioxo-2,3,4,5,6,9-hexahydro-7-methylpyrido[2,3-f][1,4]thiazepine-8-carboxylate] | 23 | 62 | 86 | – | 48 | 93 | – | – | 20 | – | –
5 | – | 32 | CCOC(=O)C1=C(C)NC2=C(C1c1cccc(Cl)c1Cl)S(=O)(=O)CCN(C(=O)OC(C)(C)C)C2 (centres unmarked) [2,3-dichloro / BOC / ethyl, Ethyl 9-(2,3-Dichlorophenyl)-4-(t-butyloxycarbonyl) -1,1-dioxo-2,3,4,5,6,9-hexahydro-7-methylpyrido[2,3-f][1,4]thiazepine-8-carboxylate] | – | – | 0 | – | – | 18 | – | – | – | 4 | –

More lines, now with the values behind:

Row | SMILES | IC50 [1] [nM] | inhibition at 1 µM [1] [%] | inhibition at 0.1 µM (trachealis muscle tissue) [%] | inhibition at 0.3 µM (trachealis muscle tissue) [%] | inhibition at 2 µM (trachealis muscle tissue) [%] | inhibition at 0.01 µM (aorta tissue) [%] | inhibition at 0.1 µM (aorta tissue) [%] | inhibition at 1 µM (aorta tissue) [%] | inhibition at 0.01 µM (trachealis muscle tissue) [%] | inhibition at 0.03 µM (trachealis muscle tissue) [%] | inhibition at 0.03 µM (aorta tissue; 0.03 μM) [%] | inhibition at 0.3 µM (aorta tissue; 0.3 μM) [%] | inhibition at 1 µM (trachealis muscle tissue; 1.0 μM) [%]
6 | CCOC(=O)C1=C(C)NC2=C(C1c1c(F)c(F)c(F)c(F)c1F)S(=O)(=O)CCNC2 (centres unmarked) [pentafluoro / H / ethyl, Ethyl 1,1-dioxo-2,3,4,5,6,9-hexahydro-7-methyl-9-(2,3,4,5,6-pentafluorophenyl)-pyrido[2,3-f][1,4]-thiazepine-8-carboxylate] | 90 | – | 63 | – | 98 | 61 | 89 | 95 | 13 | – | – | – | –
7 | CCOC(=O)C1=C(C)NC2=C(C1c1c(F)c(F)c(F)c(F)c1F)S(=O)(=O)CCN(C(=O)OC(C)(C)C)C2 (centres unmarked) [pentafluoro / BOC / ethyl] | – | 24 | – | – | 7 | – | 0 | 37 | – | – | – | – | –
8 | CCOC(=O)C1=C(C)NC2=C(C1c1cccc([N+](=O)[O-])c1)S(=O)(=O)CCNC2 (centres unmarked) [3-nitro / H / ethyl] | 240 | – | – | – | 93 | – | 88 | 100 | – | 58 | – | – | –
9 | CCOC(=O)C1=C(C)NC2=C(C1c1c(F)c(F)c(F)c(F)c1F)S(=O)(=O)CCN(C)C2 (centres unmarked) [pentafluoro / Me / ethyl, Ethyl 4,7-dimethyl-1,1-dioxo-2,3,4,5,6,9-hexahydro-9-(2,3,4,5,6-pentafluorophenyl)-pyrido[2,3-f][1,4]-thiazepine-8-carboxylate] | 53 | – | 73 | – | – | 50 | – | 97 | 35 | – | – | – | 95
